Test results taken from US4499090A, “N-(5-aminomethyl-2-oxazolin-2-yl)-N'-phenylureas, compositions and use” (Societe Cortial, S.A., priority 1982, dated 1985).

Experiments:
[1] = tested on: edema of a rat's foot induced by carrageenan; experiment: Edema of a rat's foot induced by carrageenan; format: in vivo; conditions: orally, 200 mg/kg
[2] = tested on: arrhythmias in mice subjected to chloroform anesthesia; experiment: Arrhythmias in mice subjected to chloroform anesthesia; format: in vivo; conditions: intraperitoneally, 100 mg/kg
[3] = Toxicity determined in mice, oral and intraperitoneal administration; format: in vivo
Method: The toxicity was determined in mice for various ways of administration.

[4] = tested on: right auricle of a guinea pig; experiment: Chronotropic effect induced by histamine on the spontaneously beating right auricle of a guinea pig; conditions: Cavia porcellus, 100 microg/ml, 5 microg/ml of histamine
GABA transaminase = experiment: Action on GABA transaminase, concluded from second administration of bicuculline; format: in vivo; conditions: concluded from lack of inhibition of convulsions at second bicuculline administration 5 hours later
[5] = tested on: convulsions induced by bicuculline; experiment: Convulsions induced by injection of bicuculline; format: in vivo

Row | Compound | inhibition of edema of a rat's foot induced by carrageenan [1] [%] | appearance of arrhythmias [2] | mortality ([3]; intraperitoneally at 200 mg/kg) | mortality ([3]; orally at 300 mg/kg) | inhibition at 100 µg/mL [4] [%] | action on GABA transaminase (GABA transaminase) | type of activity ([5]; concluded from the bicuculline convulsion tests) | inhibition of convulsions induced by bicuculline ([5]; intraperitoneally, 80 mg/kg, 0.5 mg/kg of bicuculline 30 minutes later) | inhibition of convulsions induced by a second administration of bicuculline ([5]; intraperitoneally, 80 mg/kg, second administration of bicuculline 5 hours later)
1 | CCN(CC)CC1CN=C(NC(=O)Nc2ccccc2)O1 (centres unmarked) [Example 1, N-(5-diethylaminomethyl-2-oxazolin-2-yl)-N'-phenylurea] | 51 | prevented the appearance of arrhythmias | did not cause any mortality | did not cause any mortality | > 50 | – | – | – | –
2 | O=C(NC1=NCC(CN2CCCCC2)O1)Nc1ccccc1 (centres unmarked) [Example 2, N-Phenyl-N'-(5-piperidinomethyl-2-oxazoline-2-yl)urea] | – | prevented the appearance of arrhythmias | did not cause any mortality | did not cause any mortality | – | – | – | – | –
3 | O=C(NC1=NCC(CN2CCc3ccccc3C2)O1)Nc1ccccc1 (centres unmarked) [Example 3] | – | – | did not cause any mortality | did not cause any mortality | – | does not act on the GABA transaminase | direct gabergic type | caused an inhibition of convulsions | no longer inhibits convulsions
